Square brackets hold non-standard residues; d marks the D form. Peptide text beside a SMILES is read from it. * marks the point of attachment. ξ: configuration not given here. Cbz = O=C(OCc1ccccc1)*; ξL = CC(C)CC(N)C(=O)O; CH2Cl = ClC*
Legend:
p130^fps = target: T1, p130^fps (UniProt P00530+P03323); experiment: Casein phosphorylation by p130fps immunoprecipitates; type: biochemical, Fujinami sarcoma virus (FSV); settings: casein-phosphorylating activity of p130fps; concentration not given
T1 construct: anti-gag serum and Staphylococcus protein A suspension (for FSV-transformed cells); viral gag-derived N-terminal portion (natural gag-fps fusion); expressed in transfected cells; immune complex with anti-gag serum and Staphylococcus protein A
Experimental: In a related experiment, the capacity of Boc-LeuCH2 Br to inhibit phosphorylation of casein by p130^fps was determined. These tests were conducted substantially as described above, except 1 mg/mL casein was added to assay mixtures as a substrate, and reactions were terminated by addition of 2.5 mM unlabeled ATP and immediate cooling to 0°. Phosphorylated casein was separated from immunoprecipitate suspensions by centrifugation at 3,000 xg for 3 minutes. The resulting pellets were resuspended in 70 μL of 10 mM Hepes, pH 7.5, and 20 μL aliquots were pipetted onto filter paper squares as previously described. […]

[1] = tested on: erythroleukemia cell line K-562; experiment: Tumor cell line growth inhibition, K-562; type: cell-based
Experimental: (§1) In this series of experiments, the tumor cell growth inhibitory capacity of various peptide halomethyl ketones was tested against lymphoma cell lines YAC-1 and MOLT-4, and against an erythroleukemia cell line, K-562. The lymphoma cell line YAC-1 is described by Kiessling, et al., Eur. J. Immunol. 5:112 (1975), and MOLT-4 is described by Minowada, et al., J. Natl. Cancer Inst. 49:891 (1972) and Nilsson, et al., Int. J. Cancer 15:321 (1975). The erythroleukemia cell line K-562 is described by Lozzio, et al., Leuk. Res. 3:363 (1979). In these experiments, cells were grown on standard media as 10 mL suspension cultures. Initial cell density was 10^5 cells/mL. At day 0, test compounds were introduced in ethanol; control cultures received an equal volume of ethanol. Cells were counted at the times indicated.

[2] = tested on: A-431 plasma membrane extracts (EGF-mediated protein phosphorylation); experiment: Protein phosphorylation in solubilized A-431 plasma membrane extracts, with or without EGF; type: biochemical, human
Experimental: The capacity of certain peptide halomethyl ketones to inhibit protein phosphorylation is illustrated by Examples 1-8, below, in which solubilized plasma membranes prepared from A-431 human epidermoid carcinoma cells were incubated with [γ-^32 P] ATP in the presence of EGF.
A-431 human epidermoid carcinoma cells were grown in Dulbecco's modified Eagle's medium containing 5% fetal calf serum. Plasma membranes were isolated by a method substantially similar to that described by Thom et al., Biochem J. 168:187 (1977), and kept at -70°. Solubilization of plasma membranes was performed substantially as described by Cohen et al., J. Biol. Chem. 255:4834 (1980). In this procedure, 7.5 mg/mL protein was solubilized with 5% Triton X-100 (octylphenol), 10% glycerol, and 20 mM Hepes buffer (N-2-hydroxyethylpiperazine-N^1 -2-ethanesulfonic acid), pH 7.4. This mixture was incubated for 20 minutes at about 23°, followed by centrifugation at 100,000 xg for 60 minutes.
Protein phosphorylation assays were conducted substantially as described by Carpenter et al., J. Biol. Chem. 254:4884 (1979). Each assay mixture contained, in a final volume of 70 μL: 20 mM Hepes, pH 7.4, 0.01% bovine serum albumin (BSA), 15-150 μg protein in Triton extract, 100 ng EGF, 1 mM MnCl2 and 10-20 μM [γ-^32 P] ATP (2-4 μCi). Peptide halomethyl ketones were added as solutions in ethanol; an equivalent volume of ethanol was added to controls. Assay mixtures were incubated at about 23° for ten minutes, with or without added EGF. Mixtures were then held at 0° for ten minutes before initiation of phosphorylation by addition of 15 μM γ-^32 P) ATP (2 μCi). Reactions were terminated after 3 minutes at 0° by applying an aliquot of the assay mixture to a Whatman 3MM filter paper (2×2 cm), which was then suspended in ice-cold 10% trichloroacetic acid containing 10 mM pyrophosphate. This suspension was gently shaken for a period of 1 hour, during which the trichloroacetic acid/pyrophosphate mixture was changed three times. Finally, the filter papers were dried and radioactivity measured by scintillation counting.

[3] = tested on: lymphoma cell line MOLT-4; experiment: Tumor cell line growth inhibition, MOLT-4; type: cell-based
Experimental: as §1

lymphoma cell line YAC-1 = experiment: Tumor cell line growth inhibition, YAC-1; type: cell-based
Experimental: as §1

[4] = 400 nmol/mg protein, control 20.2
[5] = 400 nmol/mg protein, control 7.3

SMILES: CC(=O)NC(Cc1ccccc1)C(=O)NC(CCC(=O)O)C(=O)NC(C)C(=O)NC(CC(C)C)C(=O)CCl (stereo not drawn) [Ac-Phe-Glu-Ala-LeuCH2 Cl] (Ac-FEAL-CH2Cl; configuration not given here)
- Percent Inhibition (p130^fps): -1%

SMILES: CC(=O)N[C@@H](Cc1ccccc1)C(=O)NCC(=O)N[C@@H](C)C(=O)N[C@@H](CC(C)C)C(=O)CCl [Ac-Phe-Gly-Ala-LeuCH2 Cl] (Ac-FGAL-CH2Cl)
- % Growth Relative to Control Cultures ([1]; 0.4 μg/mL, day 1): 81%
- % Growth Relative to Control Cultures ([1]; 0.4 μg/mL, day 3): 85%
- % Growth Relative to Control Cultures ([1]; 0.4 μg/mL, day 7): 84%
- % Growth Relative to Control Cultures ([1]; 2.0 μg/mL, day 4): 79%
- % Growth Relative to Control Cultures ([1]; 10. μg/mL, day 2): 77%
- % Growth Relative to Control Cultures ([1]; 10. μg/mL, day 3): 87%
- % Growth Relative to Control Cultures ([1]; 10. μg/mL, day 7): 47%
- % inhibition, EGF Added ([2]; 400 nmol/mg protein): 59%
- EGF Added (pmol 32P incorporated/min/mg protein) [2, 4]: 8.3 pmol^32 P incorporated/min/mg
- % inhibition, No EGF Added ([2]; 400 nmol/mg protein): 29%
- No EGF Added (pmol 32P incorporated/min/mg protein) [2, 5]: 5.2 pmol^32 P incorporated/min/mg
- % Growth Relative to Control Cultures ([3]; 0.4 μg/mL, day 1): 50%
- % Growth Relative to Control Cultures ([3]; 0.4 μg/mL, day 4): 72%
- % Growth Relative to Control Cultures ([3]; 0.4 μg/mL, day 7): 66%
- % Growth Relative to Control Cultures ([3]; 2.0 μg/mL, day 4): 87%
- % Growth Relative to Control Cultures ([3]; 10. μg/mL, day 7): 88%
- % Growth Relative to Control Cultures (lymphoma cell line YAC-1; 0.4 μg/mL, day 1): 80%
- % Growth Relative to Control Cultures (lymphoma cell line YAC-1; 0.4 μg/mL, day 2): 91%
- % Growth Relative to Control Cultures (lymphoma cell line YAC-1; 10. μg/mL, day 1): 78%
- % Growth Relative to Control Cultures (lymphoma cell line YAC-1; 10. μg/mL, day 2): 59%
- % Growth Relative to Control Cultures (lymphoma cell line YAC-1; 10. μg/mL, day 3): 43%
- % Growth Relative to Control Cultures (lymphoma cell line YAC-1; 10. μg/mL, day 4): 24%

SMILES: CC(=O)NC(Cc1ccccc1)C(=O)NCC(=O)NC(CCC(=O)O)C(=O)NC(CC(C)C)C(=O)CCl (stereo not drawn) [Ac-Phe-Gly-Glu-LeuCH2 Cl] (Ac-FGEL-CH2Cl; configuration not given here)
- Percent Inhibition (p130^fps): 0%

SMILES: CC(C)[C@H](NC(=O)OC(C)(C)C)C(=O)CCl [Boc-ValCH2 Cl]
- % inhibition, EGF Added ([2]; 477 nmol/mg protein): 25%
- EGF Added (pmol 32P incorporated/min/mg protein) ([2]; 477 nmol/mg protein, control 96.2): 72.2 pmol^32 P incorporated/min/mg
- No EGF Added (pmol 32P incorporated/min/mg protein) ([2]; 477 nmol/mg protein, control 21.6): 20.3 pmol^32 P incorporated/min/mg

SMILES: CC(C)C[C@H](NC(=O)[C@H](C)NC(=O)CNC(=O)[C@H](Cc1ccccc1)NC(=O)OCc1ccccc1)C(=O)CCl [Z--Phe-Gly-Ala-LeuCH2 Cl, Z-Phe-Gly-Ala-LeuCH2 Cl] (Cbz-FGAL-CH2Cl)
- Percent Inhibition (p130^fps): 27%

SMILES: CC(C)CC(NC(=O)C(CC(C)C)NC(=O)CNC(=O)C(Cc1ccccc1)NC(=O)OCc1ccccc1)C(=O)CCl (stereo not drawn) [Z--Phe-Gly-Leu-LeuCH2 Cl, Z-Phe-Gly-Leu-LeuCH2 Cl] (Cbz-FGLL-CH2Cl; configuration not given here)
- Percent Inhibition (p130^fps): 44%

SMILES: CC(C)CC(NC(=O)C(CCCCN)NC(=O)CNC(=O)C(Cc1ccccc1)NC(=O)OCc1ccccc1)C(=O)CCl (stereo not drawn) [Z--Phe-Gly-Lys-LeuCH2 Cl, Z-Phe-Gly-Lys-LeuCH2 Cl] (Cbz-FGKL-CH2Cl; configuration not given here)
- Percent Inhibition (p130^fps): 48%

SMILES: CC(C)C[C@H](NC(=O)[C@H](Cc1ccccc1)NC(=O)CNC(=O)[C@H](Cc1ccccc1)NC(=O)OCc1ccccc1)C(=O)CCl [Z--Phe-Gly-Phe-LeuCH2 Cl, Z-Phe-Gly-Phe-LeuCH2 Cl] (Cbz-FGFL-CH2Cl)
- Percent Inhibition (p130^fps): 34%

SMILES: CC(C)C[C@H](NC(=O)[C@@H]1CCCN1C(=O)CNC(=O)[C@H](Cc1ccccc1)NC(=O)OCc1ccccc1)C(=O)CCl [Z--Phe-Gly-Pro-LeuCH2 Cl] (Cbz-FGPL-CH2Cl)
- Percent Inhibition (p130^fps): 7%

SMILES: CC(C)CC(NC(=O)[C@H](C)NC(=O)[C@H](CC(C)C)NC(=O)[C@H](Cc1ccccc1)NC(=O)OCc1ccccc1)C(=O)CCl (stereo partly drawn) [Z--Phe-Leu-Ala-LeuCH2 Cl, Z-Phe-Leu-Ala-LeuCH2 Cl] (Cbz-FLA[ξL]-CH2Cl)
- Percent Inhibition (p130^fps): 36%

SMILES: CC(C)CC(NC(=O)C(C)NC(=O)C(CCCCN)NC(=O)C(Cc1ccccc1)NC(=O)OCc1ccccc1)C(=O)CCl (stereo not drawn) [Z--Phe-Lys-Ala-LeuCH2 Cl, Z-Phe-Lys-Ala-LeuCH2 Cl] (Cbz-FKAL-CH2Cl; configuration not given here)
- Percent Inhibition (p130^fps): 11%

SMILES: C[C@H](NC(=O)OCc1ccccc1)C(=O)CCl [Z-AlaCH2 Cl]
- % inhibition, EGF Added ([2]; 400 nmol/mg protein): 71%
- EGF Added (pmol 32P incorporated/min/mg protein) [2, 4]: 5.9 pmol^32 P incorporated/min/mg
- % inhibition, No EGF Added ([2]; 400 nmol/mg protein): 44%
- No EGF Added (pmol 32P incorporated/min/mg protein) [2, 5]: 4.1 pmol^32 P incorporated/min/mg

From patent US4582821A, “Inhibition of cyclic nucleotide independent protein kinases” (E. I. Du Pont de Nemours and Company, priority 1983, dated 1986)
